# From patent US10918645B2 (LIFEARC, priority 2016, dated 2021)
# Key:
# Type in all cases: biochemical
# Conditions in all cases: 1 μM inhibitor concentration
# ERK1 = ERK1 (Homo sapiens (Human), UniProt P27361); assay: ERK1 kinase selectivity assay
# Description: 5-20 mU of ERK1 (diluted in 50 mM Tris (pH 7.5), 0.1 mM EGTA, 1 mg/ml BSA, 0.1%, b-Mercaptoethanol) is assayed against MBP in a final volume of 25.5 μl containing 50 mM Tris (pH 7.5), 0.1 mM EGTA, 0.1%, b-Mercaptoethanol, 0.33 mg/ml MBP, 10 mM magnesium acetate and 0.005 mM [33P-g-ATP](500-1000 cpm/pmole) and incubated for 30 mins at room temperature. Assays are stopped by addition of 5 μl of 0.5M (3%) orthophosphoric acid. Assays are harvested onto P81 Unifilter plates using a wash buffer of 50 mM orthophosphoric acid.
# JNK1 = JNK1 (Homo sapiens (Human), UniProt P45983); assay: JNK1 kinase selectivity assay
# Description: JNK1a1/SAPK1c (5-20 mU diluted in 50 mM Tris pH 7.5, 0.1 mM EGTA, 1 mg/ml BSA, 0.1% b-mercaptoethanol) is assayed against ATF2 (activating transcription factor in a final volume of 25.5 μl in 50 mM Tris pH 7.5, 0.1 mM EGTA, 0.1% b-Mercaptoethanol, ATF2 (3 μM), 10 mM magnesium acetate and 0.02 mM [33P-g-ATP] (500-1000 cpm/pmole) and incubated for 30 min at room temperature. Assays are stopped by addition of 5 μl of 0.5 M (3%) orthophosphoric acid and then harvested onto P81 Unifilter plates with a wash buffer of 50 mM orthophosphoric acid.
# TrkA = TrkA (Homo sapiens (Human), UniProt P04629); assay: TrkA kinase selectivity assay
# Description: (§1) TrkA (5-20 mU diluted in 50 mM Tris pH 7.5, 0.1 mM EGTA, 10 mM MnCl, 1 mg/ml BSA) is assayed against a substrate peptide (Poly Glut Tyr) in a final volume of 25.5 μl containing 50 mM Tris pH 7.5, 0.1 mM EGTA, 1 mg/ml substrate peptide, 10 mM magnesium acetate and 0.02 mM [33P-γ-ATP] (50-1000 cpm/pmole) and incubated for 30 min at room temperature. Assays are stopped by addition of 5 μl of 0.5 M (3%) orthophosphoric acid and then harvested onto P81 Unifilter plates with a wash buffer of 50 mM orthophosphoric acid.
# BTK = BTK (Homo sapiens (Human), UniProt Q06187); assay: BTK kinase selectivity assay
# Description: as §1, with “BTK” for “TrkA”, “EGTA,” for “EGTA, 10 mM MnCl,”, “([…])” for “(Poly Glut Tyr)”, “300 µM” for “0.1 mM EGTA, 1 mg/ml”, “0.05” for “0.02”, “[33P-g-ATP]” for “[33P-γ-ATP]”
# CK1δ = CK1δ (Homo sapiens (Human), UniProt P48730); assay: CK1 kinase selectivity assay
# Description: CK1 (5-20 mU diluted in 20 mM Hepes pH7.5, 0.15 M NaCl, 0.1 mM EGTA, 0.1% Triton X-100, 5 mM DTT, 50% glycerol) is assayed against CKI peptide ([…]) in a final volume of 25.5 μl containing 20 mM Hepes pH 7.5, 0.15 M NaCl, 0.1 mM EDTA, 5 mM DTT, 0.1% Triton-X 100, CKI peptide (0.5 mM), 10 mM magnesium acetate and 0.02 mM [33P-g-ATP](500-1000 cpm/pmole) and incubated for 30 min at room temperature. Assays are stopped by addition of 5 μl of 0.5 M (3%) orthophosphoric acid and then harvested onto P81 Unifilter plates with a wash buffer of 50 mM orthophosphoric acid.
# CHK1 = CHK1 (Homo sapiens (Human), UniProt O14757); assay: CHK1 kinase selectivity assay
# Description: CHK1 (5-20 mU diluted in 20 mM MOPS pH 7.5, 1 mM EDTA, 0.1% b-mercaptoethanol, 0.01% Brij-35, 5% glycerol, 1 mg/ml BSA) is assayed against CHKtide substrate peptide ([…]) in a final volume of 25.5 μl containing 8 mM MOPS pH 7.0, 0.2 mM EDTA, 200 μM CHKtide, 10 mM magnesium acetate and 0.02 mM [33P-g-ATP](50-1000 cpm/pmole) and incubated for 30 min at room temperature Assays are stopped by addition of 5 μl of 0.5 M (3%) orthophosphoric acid and then harvested onto P81 Unifilter plates with a wash buffer of 50 mM orthophosphoric acid.
# PKA = PKA (Homo sapiens (Human), UniProt P17612); assay: PKA kinase selectivity assay
# Description: PKA (5-20 mU diluted in 20 mM MOPS pH 7.5, 1 mM EDTA, 0.01% Brij35, 0.1% b-mercaptoethanol, 1 mg/ml BSA) is assayed against Kemptide (LRRASLG) in a final volume of 25.5 μl containing 8 mM MOPS pH 7.5, 0.2 mM EDTA, 30 μM substrate peptide, 10 mM magnesium acetate and 0.005 mM [33P-g-ATP] (50-1000 cpm/pmole) and incubated for 30 min at room temperature. Assays are stopped by addition of 5 μl of 0.5 M (3%) orthophosphoric acid and then harvested onto P81 Unifilter plates with a wash buffer of 50 mM orthophosphoric acid.
# MLK3 = MLK3 (Homo sapiens (Human), UniProt Q16584); assay: MLK3 kinase selectivity assay
# Description: as §1, with “MLK3 (5-20” for “TrkA (5-20”, “EGTA, 0.1% 0-mercaptoethanol,” for “EGTA, 10 mM MnCl,”, “against MBP” for “against a substrate peptide (Poly Glut Tyr)”, “EGTA, 0.33” for “EGTA, 1”, “mg/ml MBP,” for “mg/ml substrate peptide,”
# Chain of CHK1 (O14757 whole entry, species assumed): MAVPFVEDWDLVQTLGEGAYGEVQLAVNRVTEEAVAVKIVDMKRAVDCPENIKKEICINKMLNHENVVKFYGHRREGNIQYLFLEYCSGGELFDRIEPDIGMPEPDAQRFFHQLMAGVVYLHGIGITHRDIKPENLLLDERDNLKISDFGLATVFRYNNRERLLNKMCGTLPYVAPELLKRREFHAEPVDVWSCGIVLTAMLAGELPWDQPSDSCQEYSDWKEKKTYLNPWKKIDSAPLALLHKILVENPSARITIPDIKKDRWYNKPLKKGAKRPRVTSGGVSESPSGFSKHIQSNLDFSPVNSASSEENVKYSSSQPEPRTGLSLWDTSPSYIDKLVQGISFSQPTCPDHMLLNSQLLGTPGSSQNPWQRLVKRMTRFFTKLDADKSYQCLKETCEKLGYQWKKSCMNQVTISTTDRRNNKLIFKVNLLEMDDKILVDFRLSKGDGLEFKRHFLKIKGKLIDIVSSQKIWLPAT
# Chain of JNK1 (P45983 other isoform, or with tags, fused parts or gaps, species assumed): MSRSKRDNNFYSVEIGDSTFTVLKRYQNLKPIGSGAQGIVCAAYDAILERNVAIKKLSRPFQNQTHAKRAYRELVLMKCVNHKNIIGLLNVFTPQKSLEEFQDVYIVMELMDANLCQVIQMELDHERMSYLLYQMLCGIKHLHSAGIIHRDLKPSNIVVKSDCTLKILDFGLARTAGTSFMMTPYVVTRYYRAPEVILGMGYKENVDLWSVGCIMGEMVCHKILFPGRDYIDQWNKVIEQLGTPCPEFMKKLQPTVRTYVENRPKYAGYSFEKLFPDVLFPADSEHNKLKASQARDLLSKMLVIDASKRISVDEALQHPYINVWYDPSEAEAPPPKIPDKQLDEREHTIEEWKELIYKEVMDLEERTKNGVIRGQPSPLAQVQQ
# Chain of ERK1 (P27361 whole entry, species assumed): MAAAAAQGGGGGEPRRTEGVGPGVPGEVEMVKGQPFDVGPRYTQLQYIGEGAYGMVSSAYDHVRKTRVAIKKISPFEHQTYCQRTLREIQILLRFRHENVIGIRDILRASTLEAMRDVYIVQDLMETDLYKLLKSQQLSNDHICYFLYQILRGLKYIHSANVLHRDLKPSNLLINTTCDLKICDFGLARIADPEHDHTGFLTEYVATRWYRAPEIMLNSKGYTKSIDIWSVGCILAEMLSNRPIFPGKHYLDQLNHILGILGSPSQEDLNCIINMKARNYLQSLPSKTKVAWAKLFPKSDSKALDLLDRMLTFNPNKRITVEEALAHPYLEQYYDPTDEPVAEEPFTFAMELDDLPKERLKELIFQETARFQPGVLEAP
# Chain of TrkA (P04629 33-796, species assumed): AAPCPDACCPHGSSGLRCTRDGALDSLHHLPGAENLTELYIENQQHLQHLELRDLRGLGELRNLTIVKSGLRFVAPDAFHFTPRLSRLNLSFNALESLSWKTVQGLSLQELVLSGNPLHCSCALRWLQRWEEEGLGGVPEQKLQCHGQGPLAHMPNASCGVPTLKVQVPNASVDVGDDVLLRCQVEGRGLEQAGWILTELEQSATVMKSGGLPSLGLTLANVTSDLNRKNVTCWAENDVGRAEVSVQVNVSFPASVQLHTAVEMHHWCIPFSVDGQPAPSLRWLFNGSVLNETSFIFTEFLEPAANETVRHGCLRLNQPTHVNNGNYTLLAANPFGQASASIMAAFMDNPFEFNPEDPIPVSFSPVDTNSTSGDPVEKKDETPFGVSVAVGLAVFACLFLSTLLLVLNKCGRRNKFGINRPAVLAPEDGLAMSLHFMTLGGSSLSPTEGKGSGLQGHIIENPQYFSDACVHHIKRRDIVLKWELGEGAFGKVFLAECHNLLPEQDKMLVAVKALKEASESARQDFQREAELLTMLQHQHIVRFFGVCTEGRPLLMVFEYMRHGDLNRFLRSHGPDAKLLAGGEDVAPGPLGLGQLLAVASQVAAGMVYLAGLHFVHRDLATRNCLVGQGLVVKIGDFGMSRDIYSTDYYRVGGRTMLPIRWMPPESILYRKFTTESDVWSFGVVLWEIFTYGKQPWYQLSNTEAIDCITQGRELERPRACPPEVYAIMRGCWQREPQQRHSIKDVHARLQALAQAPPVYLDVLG
# Chain of BTK (Q06187 whole entry, species assumed): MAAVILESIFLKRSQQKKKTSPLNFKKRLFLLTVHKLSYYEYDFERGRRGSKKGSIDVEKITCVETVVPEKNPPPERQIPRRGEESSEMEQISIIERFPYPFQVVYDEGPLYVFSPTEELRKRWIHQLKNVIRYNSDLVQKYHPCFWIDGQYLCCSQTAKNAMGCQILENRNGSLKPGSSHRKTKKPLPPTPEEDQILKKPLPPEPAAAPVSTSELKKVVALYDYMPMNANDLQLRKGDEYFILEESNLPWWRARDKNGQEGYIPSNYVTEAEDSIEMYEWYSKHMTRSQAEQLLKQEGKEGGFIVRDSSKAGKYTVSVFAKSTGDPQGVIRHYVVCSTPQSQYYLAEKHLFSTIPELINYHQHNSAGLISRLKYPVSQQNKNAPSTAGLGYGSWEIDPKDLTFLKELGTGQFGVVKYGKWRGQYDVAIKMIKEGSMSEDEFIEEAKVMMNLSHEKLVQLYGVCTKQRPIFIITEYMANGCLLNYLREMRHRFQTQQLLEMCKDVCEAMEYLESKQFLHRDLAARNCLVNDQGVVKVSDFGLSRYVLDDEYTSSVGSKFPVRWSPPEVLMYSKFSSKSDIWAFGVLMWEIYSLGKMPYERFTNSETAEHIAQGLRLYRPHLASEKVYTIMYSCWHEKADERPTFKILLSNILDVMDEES
# Chain of CK1δ (P48730 whole entry): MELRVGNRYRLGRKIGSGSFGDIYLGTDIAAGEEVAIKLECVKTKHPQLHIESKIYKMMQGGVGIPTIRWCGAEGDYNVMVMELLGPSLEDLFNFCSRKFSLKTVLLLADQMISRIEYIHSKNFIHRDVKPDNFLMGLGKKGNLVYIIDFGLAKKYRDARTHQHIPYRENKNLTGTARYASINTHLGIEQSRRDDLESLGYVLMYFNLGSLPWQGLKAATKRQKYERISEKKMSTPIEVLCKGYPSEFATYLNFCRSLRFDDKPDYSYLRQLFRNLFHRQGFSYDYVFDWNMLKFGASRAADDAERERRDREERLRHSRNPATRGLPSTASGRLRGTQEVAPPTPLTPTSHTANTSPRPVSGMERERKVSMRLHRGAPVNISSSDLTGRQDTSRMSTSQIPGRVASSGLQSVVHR
# Chain of MLK3 (Q16584 whole entry, species assumed): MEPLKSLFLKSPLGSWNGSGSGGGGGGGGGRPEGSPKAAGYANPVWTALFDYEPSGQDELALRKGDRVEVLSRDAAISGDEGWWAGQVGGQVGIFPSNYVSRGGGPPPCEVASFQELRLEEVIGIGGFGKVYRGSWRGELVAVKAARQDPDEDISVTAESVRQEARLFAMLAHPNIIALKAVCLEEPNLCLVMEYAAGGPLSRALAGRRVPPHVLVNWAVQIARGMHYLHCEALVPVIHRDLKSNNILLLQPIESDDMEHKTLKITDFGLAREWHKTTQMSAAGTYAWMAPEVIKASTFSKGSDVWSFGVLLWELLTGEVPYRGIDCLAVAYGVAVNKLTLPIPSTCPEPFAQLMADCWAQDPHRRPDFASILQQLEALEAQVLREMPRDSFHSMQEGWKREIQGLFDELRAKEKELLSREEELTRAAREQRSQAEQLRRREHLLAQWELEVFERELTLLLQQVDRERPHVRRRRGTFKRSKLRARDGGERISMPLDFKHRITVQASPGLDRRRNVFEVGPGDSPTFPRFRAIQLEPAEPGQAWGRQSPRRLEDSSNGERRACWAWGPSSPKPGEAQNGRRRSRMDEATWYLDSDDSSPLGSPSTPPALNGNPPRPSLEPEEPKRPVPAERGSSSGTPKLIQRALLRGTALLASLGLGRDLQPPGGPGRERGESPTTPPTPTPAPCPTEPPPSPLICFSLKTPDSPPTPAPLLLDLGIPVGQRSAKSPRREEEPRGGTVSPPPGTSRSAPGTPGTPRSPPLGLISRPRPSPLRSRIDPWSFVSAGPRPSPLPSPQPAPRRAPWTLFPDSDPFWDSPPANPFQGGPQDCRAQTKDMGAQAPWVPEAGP
Compound,percentage inhibition of ERK1 (ERK1) [percentage],percentage inhibition of JNK1 (JNK1) [percentage],percentage inhibition of TrkA (TrkA) [percentage],percentage inhibition of BTK (BTK) [percentage],percentage inhibition of CK1δ (CK1δ) [percentage],percentage inhibition of CHK1 (CHK1) [percentage],percentage inhibition of PKA (PKA) [percentage],percentage inhibition of MLK3 (MLK3) [percentage]
"c1cc2[nH]nc3c2c(n1)N(C1CCOCC1)CCC3 [Example 29, 6-(tetrahydro-2H-pyran-4-yl)-6,7,8,9-tetrahydro-2H-1,2,5,6-tetraazabenzo[cd]azulene]",0,0,20,0,11,0,0,8
CN1CCC(N2Cc3ccccc3-c3n[nH]c4ccnc2c34)CC1 [Example 55],4,49,5,0,12,42,0,6
"c1cc2[nH]nc3c2c(n1)N(C1CCCC1)CCC3 [Example 23, 6-cyclopentyl-6,7,8,9-tetrahydro-2H-1,2,5,6-tetraazabenzo[cd]azulene]",0,0,0,0,0,0,0,4
CC(C)n1ncc2c1CN(C1CCN(C)CC1)c1nccc3[nH]nc-2c13 [Example 68],11,48,9,0,3,28,0,4
"c1cc2[nH]nc3c2c(n1)N(C1CCC1)CCC3 [Example 22, 6-cyclobutyl-6,7,8,9-tetrahydro-2H-1,2,5,6-tetraazabenzo[cd]azulene]",0,0,0,0,0,2,0,7
